Assay results as given in US20060009425A1, “Oral formulations of paricalcitol” (priority 2004, published 2006).

Tests used:
[1] = tested on: iPTH; test: Combined Phase 3 studies, iPTH reduction (Examples 11, 12); format: in vivo, human; conditions: for iPTH, Mean Change from Baseline (SE) / iPTH, Mean Percent Change from Baseline (SE): last on-treatment
Experimental: In this example, three double-blind, placebo-controlled, multicenter studies were conducted to evaluate the safety and efficacy of paricalcitol capsule in CKD stage 3-4 subjects. Major inclusion included eGFR (MDRD formula) 15-60 mL/min/1.73 m^2, iPTH ≧150 pg/mL. A total of 220 subjects across the 3 studies were randomized and received paricalcitol capsule or placebo three times weekly (TIW, N=145) or daily (QD, N=75) for 24 weeks. […] The initial dose was 2 mcg (TIW) or 1 mcg (QD) for baseline iPTH ≦500 pg/mL and 4 mcg (TIW) or 2 mcg (QD) for baseline iPTH >500 pg/mL. Doses were titrated based on serum Ca, P and iPTH results that were measured every 2 weeks, dose increases occurred every 4 weeks.
In this example, paricalcitol capsules were evaluated in 3 double-blind, placebo-controlled multicenter studies in CKD stage 3-4 subjects with 2° HPT; 2 of these studies were conducted with TIW dosing and 1 was done with QD dosing. Subjects with eGFR (MDRD formula) 15-60 ml/min/1.73 m^2, iPTH ≧150 pg/mL, serum Ca 8.0-10.0 mg/dL and PO4≦5.2 mg/dL were randomized 1:1 and treated with paricalcitol capsule or placebo for 24 weeks. A total of 145 subjects used TIW regimen (paricalcitol: 72; placebo: 73) and 75 subjects (paricalcitol: 35; placebo: 40) used QD regimen. After the initial doses, doses were titrated based on serum Ca, P and iPTH results that were measured every 2 weeks; dose increases occurred once every 4 weeks and decreases every 2 weeks. Dosing administrations are shown below in Table 18.

[2] = Phase 3 TIW study, safety (Example 6)

For C[C@H](/C=C/[C@H](C)C(C)(C)O)[C@H]1CC[C@H]2/C(=C/C=C3C[C@@H](O)C[C@H](O)C3)CCC[C@]12C [Paricalcitol, 19-nor-1α,3β,25-trihydroxy-9,10-secoergosta-5(Z); 7(E),22(E)-triene], the “30% mean iPTH reduction by” value ([1]; 3 Phase 3 studies combined) was no more than 9 Week, the “efficacy in PTH suppression” value ([1]; 24-week pivotal Phase 3 studies, CKD Stage 3 and 4 with 2° HPT) was greater than 90% and the “subjects with 2 consecutive 30% decreases in iPTH” value ([1]; 92/101, 3 Phase 3 studies combined) was 91%. For the same compound, the “2 consecutive 30% iPTH reduction from baseline, subjects n (%)” value ([1]; N = 101, 3 Phase 3 studies combined) was 92 (91%), the “iPTH, Mean Last On-Treatment Value” ([1]; QD Regimen, N = 35) was 128 pg/mL and the “iPTH, Mean Change from Baseline (SE)” value ([1]; QD Regimen) was −131 (16.7) pg/mL. The “iPTH, Mean Percent Change from Baseline (SE)” value ([1]; QD Regimen) was −50% (5.0), the “2 consecutive 30% iPTH reduction from baseline” value ([1]; QD regimen) was 91% and the “30% mean iPTH reduction by” value ([1]; QD regimen) was no more than 7 Week. The “2 consecutive 30% iPTH reduction from baseline” value ([1]; QD regimen, listed as paricalcitol) was 91%, the “iPTH, Mean Last On-Treatment Value” ([1]; TIW Regimen, N = 69) was 179 pg/mL and the “iPTH, Mean Change from Baseline (SE)” value ([1]; TIW Regimen) was −90 (10.7) pg/mL. The “iPTH, Mean Percent Change from Baseline (SE)” value ([1]; TIW Regimen) was −33% (3.6), the “2 consecutive 30% iPTH reduction from baseline” value ([1]; TIW regimen) was 91% and the “30% mean iPTH reduction by” value ([1]; TIW regimen) was no more than 9 Week. For the same compound, the “2 consecutive 30% iPTH reduction from baseline” value ([1]; TIW regimen, listed as paricalcitol) was 91%, the safety and tolerability ([2]; CKD (Stages 3 and 4) subjects) was “safe and well tolerated” and the “adverse events considered not related to study drug administration” value ([2]; TIW, 24 weeks) was 85%. For the same compound, the “adverse events mild or moderate in severity” value ([2]; TIW, 24 weeks) was 88%, the “subjects with treatment-emergent adverse events” value ([2]; TIW, 24 weeks) was 79% and the “subjects reporting serious adverse events” value ([2]; Treatment and Follow-Up Phases) was 9 subjects. The deaths ([2]; cardiopulmonary arrest, considered not related to study drug) was 1 subject, the “adverse event incidence: constipation” value ([2]; in vivo) was 8% and the “adverse event incidence: depression” value ([2]; in vivo) was 8%. The “adverse event incidence: headache” value ([2]; in vivo) was 8%, the “adverse event incidence: hypertension” value ([2]; in vivo) was 8% and the “adverse event incidence: infection” value ([2]; in vivo) was 8%. The “adverse event incidence: pain” value ([2]; in vivo) was 10%, the “adverse event incidence: pharyngitis” value ([2]; in vivo) was 10% and the “adverse event incidence: rhinitis” value ([2]; in vivo) was 8%. For the same compound, the “adverse event incidence: vertigo” value ([2]; in vivo) was 8%, the “subjects terminated prematurely due to adverse events” value ([2]; in vivo) was 1 subjects and the “subjects who developed clinically meaningful hypercalcemia (at least 2 consecutive calcium values >10.5 mg/dL)” value ([2]; in vivo) was 1/38.
